Test results published in patent US9808505B2, “Suppression of malignant mesothelioma by overexpression or stimulation of endothelial protein C receptors (EPCR)” (BOARD OF REGENTS, THE UNIVERSITY OF TEXAS SYSTEM, priority 2013, dated 2017).

Experiments:
Assay type in all cases: cell-based, human
[1] = system: REN MPM cells; test: Measurement of cytosolic Ca2+ release (Fluo-4 fluorescence microscopy); settings: peptide 50 μM (FIG. 1E)
Protocol: Fluorescence microscopy was used for measurement of cytosolic Ca^2+ release as described earlier (34). MPM cells were seeded in 8-well chambered cover slips (Nunc, Rochester, N.Y.) at a density of 10,000 cells/well. After 24 h, cells were washed and incubated with 4 μM Fluo-4/AM Ester (Molecular Probes, Inc, Eugene, Oreg.) for 1 h in buffer B in a humidified atmosphere of 37° C./5% CO2. The cells were then washed with buffer B, and a chambered cover slip was placed on the stage of an inverted microscope (Axio Observer Z1) encased in an incubation chamber that maintained 37° C./5% CO2. Live images of cell fluorescence were recorded by exciting the Fluo-4 probe with 488 nm light and monitoring 530 nm emission using Carl Zeiss LSM 510 Meta Confocal Laser Scanning system. After 15 sec of image acquisition, PAR1 agonist peptide […]; SEQ ID NO:10)) or PAR2 agonist peptide (SLIGRL; (SEQ ID NO:11)) was added to the cells at a final concentration of 50 μM and the recording was continued for an additional 165 sec. Results are represented as change in fluorescence intensity over time.

[2] = system: REN MPM cells; test: Cell proliferation assay (BrdU incorporation) in MPM cells; settings: for difference in cell proliferation between REN and REN(+EPCR): in vitro, presence or absence of ligand, FVIIa 10 nM, APC 20 nM, thrombin 10 nM, 24 h; for cell proliferation of REN cells in response to ligand (in words): wild-type REN cells in vitro, 10 nM ligand in SFM, 24 h (FIG. 8)
Protocol: Cell proliferation assay in MPM cells in the presence or absence of various ligands was performed using Apo-BrdU cell proliferation assay kit from Millipore (Temecula, Calif.) following the manufacturer's instructions. Briefly, MPM cells (7,500 cells/well) were seeded in 96-well plates in RPMI medium containing 10% FBS, and after 24 h the cells were washed once and maintained in serum-free medium (SFM). After 24 h, the cells were washed once with SFM and incubated with SFM or SFM containing FVIIa, APC, thrombin or serum (1%) for 24 h. Twenty μl of BrdU-labeling solution was added to each well 8 h prior to the completion of 24 h incubation with the test compound. The cells were fixed and processed for detection of BrdU incorporation by incubating the cells with an anti-BrdU antibody, followed by peroxidase-conjugated secondary antibody and then the substrate tetramethyl-benzidine with three washings in between each step. The color developed in the assay was measured as absorbance at 450 nm using the absorbance measured at 650 nm as a reference value in a microplate reader (Molecular Devices, Sunnyvale, Calif.).

[3] = system: REN MPM cells; test: Elaboration of proangiogenic factors on exposure to FVIIa; settings: REN MPM cells in response to FVIIa
Protocol: To assess whether TF promotes tumor growth in MPM through elaboration of proangiogenic factors by direct signaling (as observed in breast cancer cells (38, 39)), studies were conducted here to examine whether exposure of REN MPM cells to FVIIa increased production of proangiogenic factors in these cells. […] Thus, it seems unlikely that TF-FVIIa-PAR1-mediated cell signaling promotes MPM tumor growth through elaboration of proangiogenic factors as previously speculated for promotion of tumor growth in breast cancer (21).

| Molecule | intracellular Ca2+ release [1] | thrombin-induced cell proliferation in PAR1 knock-down cells ([2]; REN cells with PAR1 knock-down (REN-P1KD)) | difference in cell proliferation between REN and REN(+EPCR) [2] | cell proliferation of REN cells in response to ligand (in words) [2] | FVIIa-induced increase in cell proliferation in TF knock-down cells ([2]; REN cells with TF knock-down (REN-TFKD)) | increase in rate of cell proliferation ([2]; naïve REN MPM cells, addition of FVIIa) | elaboration of proangiogenic factors, including IL-8, CCN1 and CCN2 [3] |
| --- | --- | --- | --- | --- | --- | --- | --- |
| SLIGRL [PAR2 agonist peptide] | not |  |  |  |  |  |  |
| TFLLRNPNDK [PAR1 agonist peptide] | induced intracellular Ca^2+ release |  |  |  |  |  |  |
| thrombin |  | diminished | no measurable differences | modest increase |  |  |  |
| FVIIa: Recombinant human FVIIa from Novo Nordisk; clotting factor that initiates coagulation upon binding to TF (protein) ANAFLEELRPGSLERECKEEQCSFEEAREIFKDAERTKLFWISYSDGDQCASSPCQNGGSCKDQLQSYICFCLPAFEGRNCETHKDDQLICVNENGGCEQYCSDHTGTKRSCRCHEGYSLLADGVSCTPTVEYPCGKIPILEKRNASKPQGRIVGGKVCPKGECPWQVLLLVNGAQLCGGTLINTIWVVSAAHCFDKIKNWRNLIAVLGEHDLSEHDGDEQSRRVAQVIIPSTYVPGTTNHDIALLRLHQPVVLTDHVVPLCLPERTFSERTLAFVRFSLVSGWGQLLDRGATALELMVLNVPRLMTQDCLQQSRKVGDSPNITEYMFCAGYSDGSKDSCKGDSGGPHATHYRGTWYLTGIVSWGQGCATVGHFGVYTRVSQYIEWLQKLMRSEPRPGVLLRAPFP |  |  | no measurable differences | modestly but consistently | abrogated | about 70% | robust or reproducible elaboration |
